This note sets out measurements from ChEMBL document CHEMBL1150132, “Five new discodermolide analogues from the marine sponge Discodermia species” (J Nat Prod, 2002).

One test has as its system P388. The test can be described thus: Cytotoxicity against mouse P388 cells after 48 hrs by MTT assay. Type of test: functional, cell-based. Particulars: P388, 48 h. For orientation: Tetrazolium dyes change colour on reduction, which living cells bring about.
A further test concerns A549. The test can be described thus: Cytotoxicity against human A549 cells. In kind it is functional, cell-based.

What is called IC50 is the concentration that inhibits the measured activity by half. A high value points to weaker potency in that assay. Take `C=C/C=C\C(C)C(OC(N)=O)C(C)C(O)C(C)/C=C(\C)C1C(C)C(O)C(C)C1/C=C/C[C@@H]1OC(=O)[C@H](C)[C@@H](O)[C@@H]1C` (stereo partly specified): the half-inhibitory concentration (IC50) in the test with P388 came out at 5040 nM; in the test with A549, 4490 nM. On the same counts, the results for `C=C/C=C\[C@H](C)[C@H](O)[C@@H](C)[C@H](O)[C@@H](C)C/C(C)=C\[C@H](C)[C@@H](O)[C@@H](C)/C=C\[C@@H](O)C[C@@H]1OC(=O)[C@H](C)[C@@H](O)[C@H]1C` are 128 nM and 74 nM. The like results for `C=C/C=C\[C@H](C)[C@H](OC(N)=O)[C@@H](C)[C@H](O)[C@@H](C)C/C(C)=C\[C@H](C)[C@@H](O)[C@@H](C)/C=C\[C@@H](O)C[C@@H]1OC(=O)C[C@@H](O)[C@H]1C` were, in that order, 172 nM and 120 nM. The like results for `C=C/C=C\[C@H](C)[C@H](OC(N)=O)[C@@H](C)[C@H](O)[C@@H](C)C/C(C)=C\[C@H](C)[C@@H](O)[C@@H](C)/C=C\[C@@H](O)C[C@H](O)[C@H](C)[C@H](O)[C@@H](C)C(=O)OC` were, in that order, 65.8 nM and 74 nM. `C=C/C=C\[C@H](C)[C@H](OC(N)=O)[C@@H](C)[C@H](O)[C@@H](C)C/C(C)=C\[C@H](C)[C@@H](O)[C@@H](C)/C=C\[C@@H](O)C[C@@H]1OC(=O)[C@H](C)[C@@H](O)[C@H]1C` [DISERMOLIDE]: the IC50 with A549 was determined as 13.5 nM. In other words, the double-digit nanomolar range. For the compound `C=C/C=C\[C@H](C)[C@H](OC(N)=O)[C@@H](C)[C@H](O)[C@@H](C)C/C(C)=C\[C@H](C)[C@@H](O)[C@@H](C)/C=C\[C@@H](O)C[C@@H]1OC(=O)[C@@H](C)[C@@H](O)[C@H]1C`, the 50% inhibitory concentration (IC50) in the test with P388 stood at 134 nM; in the test on A549, 67 nM.
